# US10653688B2, “6-(6-membered heteroaryl and aryl)isoquinolin-3-yl carboxamides and preparation and use thereof” (Samumed, LLC, priority 2017, dated 2020)
# Like-named read-outs stand apart in the source and are kept apart here.
# Experiments:
# [1] = system: Cyclin D1 phosphorylation at Threonine 286 (pCcnD1) over total Cyclin D1 in SH-SY5Y cells; experiment: phosphoCcnD1 to total CcnD1 ratio (PTT) cell-based assay, western blot; conditions: Homo sapiens, 48 hours
# Experimental: Representative compounds were screened using the cell-based assay procedure for the ratio of signal of Cyclin D1 phosphorylation at Threonine 286 (pCcnD1) over the signal of total Cyclin D1 (CcnD1) (abbreviated: phosphoCcnD1 to total CcnD1 ratio, or PTT) as described below.
# SH-SY5Y cells (human neuroblastoma, Sigma, Saint-Louis, Mo.) were cultured in 1:1 DMEM/F-12 medium supplemented with 15% FBS, 1% non-essential amino acid, and 1% penicillin/streptomycin.
# SH-SY5Y cells were seeded at 1.0×10^5 cells in 1 mL per well in a 24-well plate. After cell adherence was confirmed, DMSO-resuspended Samumed compounds were dispensed to eight wells as a serial dilution from 10 μM to 4.6 nM final concentration in medium, or at 1.1 μM to 4.6 nM with particularly potent compounds. Cells were exposed to Samumed compounds for 48 hours in a 37° C. incubator.
# Wells of compound-treated cells were visually checked for cell death before being washed with 500 μL per well of 1×DPBS supplemented with phosphatase inhibitor diluted to 1×. Cells were then lysed with 90 μL 1×RIPA buffer supplemented with phosphatase and protease inhibitors (each diluted to a final 1×). After scraping, 60 μL of cell lysate from each sample was used to dilute 4×LDS (ThermoFisher, NP0007) and 20×XT reducing agent (Bio-Rad, 1610792), each diluted to 1× final. All samples were then denatured via boiling at 95° C. Denatured cell sample lysates were directly tested for pCcnD1 and total CcnD1 signal by Western blot techniques and analysis. Specifically, denatured lysates were directly transferred to NuPAGE™ 4-12% Bis-Tris Midi Protein Gels, 26-well gels (ThermoFisher, WG1403BOX). Gels were transferred to […] nitrocellulose membranes via iBlot™ Transfer Stack, nitrocellulose, regular size (ThermoFisher, IB301031). Membranes were blocked with 1×TBS, 5% milk (Bio-Rad, 1706404XTU) before being probed for overnight with either anti-pCcnD1 primary antibody (Cell Signaling Technology, 2978S) or anti-total CcnD1 primary antibody (Cell Signaling Technology, 3300S) diluted 1:500 in 1×TBS-0.05% Tween-20, 3% milk. After overnight incubation in primary antibodies, membranes were washed profusely with 1×TBS-0.05% Tween-20 and probed for 1 hour with secondary anti-rabbit/HRP conjugate (Cell Signaling Technology, 7074S) diluted 1:1000 in 1×TBS-0.05% Tween-20, 3% milk. After incubation in secondary antibody, membranes were washed with 1×TBS-0.05% Tween-20.
# Probed and washed membranes were developed for pCcnD1 or total CcnD1 signal with SuperSignal™ West Femto Maximum Sensitivity Substrate (ThermoFisher, 34096) using the ChemoDoc-It^2 (UVP) and related GelDocIt imaging software. Blots were then stripped, blocked, stained with anti-β-actin/HRP conjugate antibody (Cell Signaling Technology, 5125S), developed, and imaged for housekeeping β-actin protein control as previously described. Densitometry was measured with ImageJ (NIH) and signal was used to plot, draw the curves fitting, and determine the EC50 values in GraphPad Prism for tested Samumed compounds.
# recombinant GSK3β kinase = recombinant GSK3β kinase (Homo sapiens (Human), UniProt P49841); experiment: GSK3β kinase assay (Ser/Thr 09 peptide Z-lyte, FRET); type: biochemical;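 note: FRET read-out as coumarin over fluorescein emission ratio, compounds incubated one hour at room temperature, IC50 from dose-response curve fit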
# recombinant GSK3β kinase, sequence (P49841 whole entry): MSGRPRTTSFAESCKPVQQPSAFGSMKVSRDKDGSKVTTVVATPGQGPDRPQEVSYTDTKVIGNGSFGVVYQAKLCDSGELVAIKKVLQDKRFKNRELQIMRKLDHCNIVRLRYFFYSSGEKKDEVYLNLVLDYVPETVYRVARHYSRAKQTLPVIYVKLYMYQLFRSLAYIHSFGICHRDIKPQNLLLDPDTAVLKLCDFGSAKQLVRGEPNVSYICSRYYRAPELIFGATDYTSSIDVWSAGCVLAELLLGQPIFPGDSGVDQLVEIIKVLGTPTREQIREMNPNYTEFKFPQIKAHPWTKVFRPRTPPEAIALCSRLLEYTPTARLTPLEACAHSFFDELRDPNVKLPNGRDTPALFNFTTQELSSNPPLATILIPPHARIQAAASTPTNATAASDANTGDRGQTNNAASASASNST
# [2] = biological target: recombinant DYRK1A kinase (Homo sapiens (Human), UniProt Q13627); experiment: DYRK1A kinase assay (Ser/Thr 18 peptide Z-lyte, FRET)
# [3] = system: Tau phosphorylation at Ser396 (pSer396) in SH-SY5Y cells; experiment: Tau phosphorylation at Ser396 (pSer396) cell assay, ELISA/western blot; type: cell-based, human; conditions: Homo sapiens; SH-SY5Y cells, overnight (16-18 h); read-out: pSer396 Tau EC50
# [4] = GSK3β kinase, head says EC50, method says IC50, ATP 46 μM
# [5] = DYRK1A kinase, head says EC50, method says IC50, ATP 30 μM
EC50 [1],EC50 (recombinant GSK3β kinase; [4]),"EC50 [2, 5]",EC50 [3],EC50 (recombinant GSK3β kinase),EC50 [2],SMILES
276 nM,56 nM,2 nM,798 nM,,,"O=C(Nc1cc2cc(-c3cccnc3)ccc2cn1)C1CC1 [Compound 6, N-(6-(Pyridin-3-yl)isoquinolin-3-yl)cyclopropanecarboxamide]"
36 nM,652 nM,2 nM,795 nM,,,"CN1CCC(C(=O)Nc2cc3cc(-c4cccnc4)ccc3cn2)CC1 [Compound 8, 1-Methyl-N-(6-(pyridin-3-yl)isoquinolin-3-yl)piperidine-4-carboxamide]"
123 nM,1180 nM,39 nM,,,,"O=C(CN1CCCC1)Nc1cc2cc(-c3cncc(F)c3)ccc2cn1 [Compound 18, N-(6-(5-Fluoropyridin-3-yl)isoquinolin-3-yl)-2-(pyrrolidin-1-yl)acetamide]"
355 nM,,,,3280 nM,31 nM,"CN1CCN(CC(=O)Nc2cc3cc(-c4cncc(F)c4)ccc3cn2)CC1 [Compound 20, N-(6-(5-Fluoropyridin-3-yl)isoquinolin-3-yl)-2-(4-methylpiperazin-1-yl) acetamide]"
1 nM,6660 nM,57 nM,,,,"CN1CCC(C(=O)Nc2cc3cc(-c4cncc(C#N)c4)ccc3cn2)CC1 [Compound 32, N-(6-(5-Cyanopyridin-3-yl)isoquinolin-3-yl)-1-methylpiperidine-4-carboxamide]"
4 nM,193 nM,1 nM,,,,"O=C(Nc1cc2cc(-c3cncc(NC4CCNCC4)n3)ccc2cn1)C1CCCCC1 [Compound 44, N-(6-(6-(piperidin-4-ylamino)pyrazin-2-yl)isoquinolin-3-yl) cyclohexanecarboxamide]"
3000 nM,1300 nM,29 nM,,,,"CC(C)CN1CCCC(C(=O)Nc2cc3cc(-c4cnccn4)ccc3cn2)CC1 (centres unmarked) [Compound 81, 1-Isobutyl-N-(6-(pyrazin-2-yl)isoquinolin-3-yl)azepane-4-carboxamide]"
412 nM,264 nM,2 nM,,,,"O=C(Nc1cc2cc(-c3cncc(NC4CCNCC4)n3)ccc2cn1)C1CCOCC1 [Compound 109, N-(6-(6-(Piperidin-4-ylamino)pyrazin-2-yl)isoquinolin-3-yl)tetrahydro-2H-pyran-4-carboxamide]"
> 10000 nM,> 10000 nM,14 nM,,,,"CN1CCN(c2cc(C(=O)Nc3cc4cc(-c5cnc6ocnc6c5)ccc4cn3)ccn2)CC1 [Compound 132, 2-(4-Methylpiperazin-1-yl)-N-(6-(oxazolo[5,4-b]pyridin-6-yl)isoquinolin-3-yl)isonicotinamide]"
37 nM,> 10000 nM,15 nM,,,,"Cc1cc2ncc(-c3ccc4cnc(NC(=O)c5ccnc(N6CCN(C)CC6)c5)cc4c3)cc2[nH]1 [Compound 135, N-(6-(2-Methyl-1H-pyrrolo[3,2-b]pyridin-6-yl)isoquinolin-3-yl)-2-(4-methylpiperazin-1-yl)isonicotinamide]"
298 nM,1250 nM,9 nM,,,,"O=C(CN1CCOCC1)Nc1cc2cc(-c3cccnc3)c(F)cc2cn1 [Compound 144, N-(7-Fluoro-6-(pyridin-3-yl)isoquinolin-3-yl)-2-morpholinoacetamide]"
48 nM,2890 nM,13 nM,,,,"CN1CCN(CC(=O)Nc2cc3cc(-c4cccnc4)c(F)cc3cn2)CC1 [Compound 145, N-(7-Fluoro-6-(pyridin-3-yl)isoquinolin-3-yl)-2-(4-methylpiperazin-1-yl) acetamide]"
359 nM,1020 nM,20 nM,,,,"COc1cncc(-c2ccc3cnc(NC(=O)CN4CCOCC4)cc3c2)c1 [Compound 147, N-(6-(5-Methoxypyridin-3-yl)isoquinolin-3-yl)-2-morpholinoacetamide]"
16 nM,,,,795 nM,13 nM,"[2H]C1([2H])OC([2H])([2H])C([2H])([2H])N(CC(=O)Nc2cc3cc(-c4cccnc4)ccc3cn2)C1([2H])[2H] [Compound 151, 2-(Morpholino-d8)-N-(6-(pyridin-3-yl)isoquinolin-3-yl)acetamide]"
